Broadly, the GI50 is the concentration giving 50% growth inhibition. A higher GI50 goes with less potent growth inhibition. In general, TGI refers to the concentration giving total growth inhibition. Low values mean greater sensitivity of the cells, high ones lower sensitivity of the cells.

This assay deals with NCI-H322M. As to the kind of experiment: Cytotoxicity against human NCI-H322M cells after 48 hrs by SRB assay. The assay is classed as functional. On the technique in general: In SRB staining, fixed cells bind dye roughly in proportion to their protein.

In the case of `N#CCCCCCn1cc(C2=C(c3cn(CCCCCC#N)c4ccccc34)C(=O)N(O)C2=O)c2ccccc21`, it took 8.53 µM to inhibit growth by half (GI50) and total growth inhibition (TGI) required 84.6 µM. Besides, the CC50 (read-out: LC50 (the source's name)) was greater than 100 µM.
